According to patent US10654917B2, “Antibody molecules and peptide delivery systems for use in alzheimer's disease and related disorders” (TECHNOPHAGE, INVESTIGAÇĀO E DESENVOLVIMENTO EM …, priority 2015, dated 2020):
Where two headings read alike, the source gives them in different places. Residues, ends and D or L forms follow the SMILES beside them. *: point of attachment. X1 = Cc1nn(CCN(CCN)CCCC(=O)*)c(C)c1CC(=O)O

How the values were obtained:
[1] = Partition coefficient (log Po/w) of radiopeptides; assay type: physicochemical
Excerpt: Table 7 lists each peptide's name, isoelectric point (PI), charge (number of positive residues), calculated mass (in Da), and ion found; as well as the name, calculated mass, and found ion for the corresponding conjugate; and also retention times in HPLC and the partition coefficient (log Po/w). These values allowed the determination of the hydrophilic nature of peptides, where pepH1 and pepH4 were identified as the most hydrophilic peptides.

[2] = Biodistribution of technetium-labelled peptides; assay type: in vivo, CD1 mice; conditions: iv, total radioactivity
Method in brief: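 CD1 mice received technetium-labelled peptide (8.5×10^−5 M final labelling concentration, in PBS) by tail-vein iv injection; in a repeat study dose was raised one hundred fold. Organs were dissected, washed, weighed and counted at 5 and 60 min, or 2 and 60 min in the repeat, as % injected activity or per gram tissue.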

CC[C@H](C)[C@H](NC(=O)CNC(=O)[C@H](C)NC(=O)CCCN(CCN)CCn1nc(C)c(CC(=O)O)c1C)C(=O)N[C@@H](CC(C)C)C(=O)N[C@@H](CCCCN)C(=O)N[C@@H](CCCNC(=N)N)C(=O)N[C@@H](Cc1c[nH]c2ccccc12)C(=O)O [^99mTc(CO)3-Pz^1-pepH3, metal not drawn] (X1-AGILKRW-OH; C-terminus assumed)
log Po/w of radiopeptides [1]: 0.11 ± 0.06
tissue uptake at 2 min ([2]; CD1, blood, 140 ug/mouse, 140 μg/mouse, read-out: injected activity in Blood): 8.6 ± 0.9 %ID/g
tissue uptake at 1 h ([2]; CD1, blood, 140 ug/mouse, 140 μg/mouse, 1 hour, read-out: injected activity in Blood): 0.43 ± 0.04 %ID/g
tissue uptake at 2 min ([2]; CD1, bone, 140 ug/mouse, 140 μg/mouse, read-out: injected activity in Bone): 1.89 ± 0.04 %ID/g
tissue uptake at 1 h ([2]; CD1, bone, 140 ug/mouse, 140 μg/mouse, 1 hour, read-out: injected activity in Bone): 0.19 ± 0.01 %ID/g
tissue uptake at 2 min ([2]; CD1, brain, 140 ug/mouse, 140 μg/mouse, read-out: injected activity in Brain): 0.31 ± 0.07 %ID/g
tissue uptake at 1 h ([2]; CD1, brain, 140 ug/mouse, 140 μg/mouse, 1 hour, read-out: injected activity in Brain): 0.03 ± 0.01 %ID/g
tissue uptake at 2 min ([2]; CD1, heart, 140 ug/mouse, 140 μg/mouse, read-out: injected activity in Heart): 2.2 ± 0.3 %ID/g
tissue uptake at 1 h ([2]; CD1, heart, 140 ug/mouse, 140 μg/mouse, 1 hour, read-out: injected activity in Heart): 0.14 ± 0.01 %ID/g
dose excreted at 1 h ([2]; CD1, in vivo, 140 ug/mouse, 140 μg/mouse, 1 hour, read-out: Excretion): 36 ± 11.2%
tissue uptake at 2 min ([2]; CD1, intestine, 140 ug/mouse, 140 μg/mouse, read-out: injected activity in Intestine): 1.4 ± 0.2 %ID/g
tissue uptake at 1 h ([2]; CD1, intestine, 140 ug/mouse, 140 μg/mouse, 1 hour, read-out: injected activity in Intestine): 23 ± 7.9 %ID/g
tissue uptake at 2 min ([2]; CD1, kidney, 140 ug/mouse, 140 μg/mouse, read-out: injected activity in Kidney): 23.1 ± 3.4 %ID/g
tissue uptake at 1 h ([2]; CD1, kidney, 140 ug/mouse, 140 μg/mouse, 1 hour, read-out: injected activity in Kidney): 3.5 ± 0.7 %ID/g
tissue uptake at 2 min ([2]; CD1, liver, 140 ug/mouse, 140 μg/mouse, read-out: injected activity in Liver): 18.8 ± 6.1 %ID/g
tissue uptake at 1 h ([2]; CD1, liver, 140 ug/mouse, 140 μg/mouse, 1 hour, read-out: injected activity in Liver): 2.3 ± 0.2 %ID/g
tissue uptake at 2 min ([2]; CD1, lung, 140 ug/mouse, 140 μg/mouse, read-out: injected activity in Lung): 4.48 ± 0.01 %ID/g
tissue uptake at 1 h ([2]; CD1, lung, 140 ug/mouse, 140 μg/mouse, 1 hour, read-out: injected activity in Lung): 0.31 ± 0.03 %ID/g
tissue uptake at 2 min ([2]; CD1, muscle, 140 ug/mouse, 140 μg/mouse, read-out: injected activity in Muscle): 1.4 ± 0.2 %ID/g
tissue uptake at 1 h ([2]; CD1, muscle, 140 ug/mouse, 140 μg/mouse, 1 hour, read-out: injected activity in Muscle): 0.2 ± 0.1 %ID/g
tissue uptake at 2 min ([2]; CD1, spleen, 140 ug/mouse, 140 μg/mouse, read-out: injected activity in Spleen): 1.6 ± 0.4 %ID/g
tissue uptake at 1 h ([2]; CD1, spleen, 140 ug/mouse, 140 μg/mouse, 1 hour, read-out: injected activity in Spleen): 0.81 ± 0.01 %ID/g
tissue uptake at 2 min ([2]; CD1, stomach, 140 ug/mouse, 140 μg/mouse, read-out: injected activity in Stomach): 1.1 ± 0.2 %ID/g
tissue uptake at 1 h ([2]; CD1, stomach, 140 ug/mouse, 140 μg/mouse, 1 hour, read-out: injected activity in Stomach): 5.2 ± 0.7 %ID/g
tissue uptake at 5 min ([2]; mouse, blood, 10 ug, CD1 mice, 5 min, 10 μg, read-out: injected activity in Blood): 4.7 ± 0.6 %ID/g
tissue uptake at 1 h ([2]; mouse, blood, 10 ug, CD1 mice, 1 hour, 10 μg, read-out: injected activity in Blood): 1.2 ± 0.4 %ID/g
tissue uptake at 5 min ([2]; mouse, bone, 10 ug, CD1 mice, 5 min, 10 μg, read-out: injected activity in Bone): 1.2 ± 0.1 %ID/g
tissue uptake at 1 h ([2]; mouse, bone, 10 ug, CD1 mice, 1 hour, 10 μg, read-out: injected activity in Bone): 0.26 ± 0.05 %ID/g
tissue uptake at 5 min ([2]; mouse, brain, 10 ug, CD1 mice, 5 min, 10 μg, read-out: injected activity in Brain): 0.15 ± 0.02 %ID/g
tissue uptake at 1 h ([2]; mouse, brain, 10 ug, CD1 mice, 1 hour, 10 μg, read-out: injected activity in Brain): 0.04 ± 0.01 %ID/g
tissue uptake at 5 min ([2]; mouse, heart, 10 ug, CD1 mice, 5 min, 10 μg, read-out: injected activity in Heart): 1.5 ± 0.5 %ID/g
tissue uptake at 1 h ([2]; mouse, heart, 10 ug, CD1 mice, 1 hour, 10 μg, read-out: injected activity in Heart): 0.35 ± 0.01 %ID/g
percent of injected dose excreted at 5 min ([2]; mouse, in vivo, 10 ug, CD1 mice, 5 min, 10 μg, read-out: Excretion): 19.6 ± 0.3 %ID
percent of injected dose excreted at 1 h ([2]; mouse, in vivo, 10 ug, CD1 mice, 1 hour, 10 μg, read-out: Excretion): 10.5 ± 8.6 %ID
tissue uptake at 5 min ([2]; mouse, intestine, 10 ug, CD1 mice, 5 min, 10 μg, read-out: injected activity in Intestine): 3 ± 0.3 %ID/g
tissue uptake at 1 h ([2]; mouse, intestine, 10 ug, CD1 mice, 1 hour, 10 μg, read-out: injected activity in Intestine): 7.4 ± 0.4 %ID/g
tissue uptake at 5 min ([2]; mouse, kidney, 10 ug, CD1 mice, 5 min, 10 μg, read-out: injected activity in Kidney): 11.9 ± 3.8 %ID/g
tissue uptake at 1 h ([2]; mouse, kidney, 10 ug, CD1 mice, 1 hour, 10 μg, read-out: injected activity in Kidney): 0.4 ± 2 %ID/g
tissue uptake at 5 min ([2]; mouse, liver, 10 ug, CD1 mice, 5 min, 10 μg, read-out: injected activity in Liver): 7.6 ± 0.1 %ID/g
tissue uptake at 1 h ([2]; mouse, liver, 10 ug, CD1 mice, 1 hour, 10 μg, read-out: injected activity in Liver): 2.3 ± 0.2 %ID/g
tissue uptake at 5 min ([2]; mouse, lung, 10 ug, CD1 mice, 5 min, 10 μg, read-out: injected activity in Lung): 3.7 ± 0.2 %ID/g
tissue uptake at 1 h ([2]; mouse, lung, 10 ug, CD1 mice, 1 hour, 10 μg, read-out: injected activity in Lung): 1 ± 0.2 %ID/g
tissue uptake at 5 min ([2]; mouse, muscle, 10 ug, CD1 mice, 5 min, 10 μg, read-out: injected activity in Muscle): 1 ± 0.2 %ID/g
tissue uptake at 1 h ([2]; mouse, muscle, 10 ug, CD1 mice, 1 hour, 10 μg, read-out: injected activity in Muscle): 0.3 ± 0.1 %ID/g
tissue uptake at 5 min ([2]; mouse, pancreas, 10 ug, CD1 mice, 5 min, 10 μg, read-out: injected activity in Pancreas): 1.1 ± 0.1 %ID/g
tissue uptake at 1 h ([2]; mouse, pancreas, 10 ug, CD1 mice, 1 hour, 10 μg, read-out: injected activity in Pancreas): 0.5 ± 0.2 %ID/g
tissue uptake at 5 min ([2]; mouse, spleen, 10 ug, CD1 mice, 5 min, 10 μg, read-out: injected activity in Spleen): 1.5 ± 0.2 %ID/g
tissue uptake at 1 h ([2]; mouse, spleen, 10 ug, CD1 mice, 1 hour, 10 μg, read-out: injected activity in Spleen): 0.81 ± 0.01 %ID/g
tissue uptake at 5 min ([2]; mouse, stomach, 10 ug, CD1 mice, 5 min, 10 μg, read-out: injected activity in Stomach): 0.17 ± 0.02 %ID/g
tissue uptake at 1 h ([2]; mouse, stomach, 10 ug, CD1 mice, 1 hour, 10 μg, read-out: injected activity in Stomach): 0.4 ± 0.2 %ID/g
